This note sets out measurements from ChEMBL document CHEMBL1201862, “PubChem BioAssay data set” (2004).

Among the test systems are BT-549; MDA-MB-231; SN12C; SK-MEL-28; NCI-H226; HOP-62; NCI-H522; SF-268; SF-295; HT-29; SW-620; KM12; K562; UO-31; Hs-578T; HL-60; M14; IGROV-1; PC-3; SF-539.
Assay in all cases: NCI tumour cell line growth inhibition, 48 h

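A five-concentration, 48-hour dose response in 96-well plates underlies each endpoint, interpolated linearly between surrounding concentrations. GI50 is the concentration that inhibits growth by half.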 Calls of active or inactive are those of the source. No stated cut-off is given here; in the data, active = GI50 up to about 1.1 µM and inactive = higher. Some results are limits rather than exact numbers.

`CC1(C)S[C@H](CN)N[C@H]1C(=O)OC(c1ccccc1)c1ccccc1`: the GI50 with BT-549 is 24.8 µM (inactive); in the test with MDA-MB-231, 35.2 µM (inactive); with SN12C, 32.4 µM (inactive); in the test on SK-MEL-28 it was 56.5 µM (inactive); with NCI-H226 it was > 100 µM (inactive); in the test on HOP-62, 49.9 µM (inactive). Besides, the GI50 is 31.9 µM (inactive) with NCI-H522; 88.1 µM (inactive) in the test on SF-268; 41.7 µM (inactive) in the test with SF-295; 33.7 µM (inactive) in the test with HT-29; 43.6 µM (inactive) in the test with SW-620; 38.5 µM (inactive) in the test on KM12. For the same molecule, the GI50 in the test with K562 was 22.9 µM (inactive); in the test with UO-31 it was 22.3 µM (inactive); in the test on Hs-578T, 83.2 µM (inactive); with HL-60, 16.7 µM (inactive); in the test on M14, 34.2 µM (inactive); in the test on IGROV-1 it was 37.4 µM (inactive). In addition, in the test on PC-3, the GI50 was 25.5 µM (inactive).

Consider `O=C1C(NCCc2cc(Cl)c(O)c(Cl)c2)=CC(=O)c2[nH]cnc21`, for which the GI50 was 33.7 µM (inactive) in the test on BT-549; 31 µM (inactive) in the test with MDA-MB-231; 30 µM (inactive) in the test on SN12C; 28 µM (inactive) with SK-MEL-28; 44 µM (inactive) in the test on HOP-62; 12.8 µM (inactive) with NCI-H522. Moreover, the GI50 with SF-539 is 39.5 µM (inactive); with SF-295 it was 18 µM (inactive); in the test on HT-29, 40.4 µM (inactive); with SW-620, 47.8 µM (inactive); in the test with KM12, 35.5 µM (inactive); in the test with K562, 26 µM (inactive). For the same molecule, the GI50 in the test with UO-31 is > 100 µM (inactive); with Hs-578T, 80 µM (inactive); in the test on HL-60 it was 17.4 µM (inactive); in the test on M14, 10.7 µM (inactive); in the test on IGROV-1 it was 18.5 µM (inactive); in the test with PC-3, 45.9 µM (inactive).

Regarding `CCCC(=O)Nc1ccc2c(c1)CN1C(=O)c3ccccc3C1=N2`, the GI50 in the test on BT-549, in the test on MDA-MB-231, in the test on SN12C, in the test on SK-MEL-28, with NCI-H226 and in the test on HOP-62 was > 100 µM (inactive) throughout. Also, the GI50 is > 100 µM (inactive) in the test with NCI-H522; > 100 µM (inactive) in the test with SF-539; > 100 µM (inactive) in the test with SF-268; 69.5 µM (inactive) in the test on SF-295; > 100 µM (inactive) with HT-29; > 100 µM (inactive) with SW-620. Further, the GI50 in the test on KM12, in the test with UO-31, in the test with Hs-578T, in the test with HL-60, in the test with M14 and in the test with IGROV-1 was > 100 µM (inactive) throughout. Moreover, the GI50 in the test with PC-3 is > 100 µM (inactive).

In the case of `COc1ccc(CC(N)c2ccc(OC)cc2)cc1` (stereo not drawn), the GI50 with BT-549 was > 100 µM (inactive); with MDA-MB-231, 84.9 µM (inactive); in the test on SN12C, > 100 µM (inactive); in the test on SK-MEL-28, 38.4 µM (inactive); in the test on NCI-H226 it was 76.2 µM (inactive); in the test on HOP-62, > 100 µM (inactive). Further, the GI50 is > 100 µM (inactive) with NCI-H522; > 100 µM (inactive) in the test with SF-268; > 100 µM (inactive) with SF-295; 45.4 µM (inactive) with HT-29; > 100 µM (inactive) with SW-620; 50 µM (inactive) in the test on KM12. Also, the GI50 in the test on K562 was 33.1 µM (inactive); in the test on UO-31, 90.6 µM (inactive); with Hs-578T, 43.9 µM (inactive); in the test on HL-60, 49.7 µM (inactive); with M14, 48 µM (inactive); in the test on IGROV-1 it was 66.7 µM (inactive). For the same molecule, in the test with PC-3, the GI50 is 42.8 µM (inactive).

On to `CC#CCOC(=O)c1ccccc1OC(C)=O`, for which the GI50 with BT-549, in the test on MDA-MB-231, in the test with SN12C, in the test with NCI-H226, in the test with HOP-62 and in the test on NCI-H522 was > 100 µM (inactive) in each case. In addition, the GI50 in the test on SF-539, in the test with SF-268, in the test on SF-295, in the test on SW-620, in the test on KM12 and in the test on K562 was > 100 µM (inactive) each time. Further, the GI50 is > 100 µM (inactive) in the test with UO-31; > 100 µM (inactive) with Hs-578T; 72.1 µM (inactive) in the test on HL-60; > 100 µM (inactive) in the test on M14; > 100 µM (inactive) with IGROV-1; > 100 µM (inactive) in the test on PC-3.

Regarding `O=C1CSC(c2ccc([N+](=O)[O-])cc2)N1c1nc(-c2ccc3c(c2)CCCC3)cs1` (stereo not drawn), the GI50 was 94.6 µM (inactive) in the test on BT-549; 70.1 µM (inactive) with MDA-MB-231; > 100 µM (inactive) in the test on SN12C; > 100 µM (inactive) in the test on SK-MEL-28; > 100 µM (inactive) with NCI-H226; > 100 µM (inactive) in the test with HOP-62. Moreover, the GI50 in the test with NCI-H522 was > 100 µM (inactive); with SF-539, 27.2 µM (inactive); in the test with SF-268, > 100 µM (inactive); in the test on SF-295, > 100 µM (inactive); with HT-29, > 100 µM (inactive); in the test on SW-620 it was > 100 µM (inactive). For the same molecule, the GI50 in the test with KM12 was > 100 µM (inactive); in the test on K562, > 100 µM (inactive); in the test with UO-31 it was > 100 µM (inactive); in the test on Hs-578T, > 100 µM (inactive); in the test with HL-60, > 100 µM (inactive); with IGROV-1 it was 25.1 µM (inactive). Further, the GI50 in the test with PC-3 was > 100 µM (inactive).

For the molecule `CC(C)(C)C1=NC(=P(c2ccccc2)(c2ccccc2)c2ccccc2)C(=O)O1`, the GI50 with BT-549, in the test on MDA-MB-231, in the test on SN12C, with SK-MEL-28, in the test with NCI-H226 and with HOP-62 was > 100 µM (inactive) in each case. Also, the GI50 in the test on NCI-H522 was 20.2 µM (inactive); with SF-268 it was > 100 µM (inactive); with SF-295 it was > 100 µM (inactive); in the test on HT-29 it was > 100 µM (inactive); with SW-620 it was > 100 µM (inactive); with KM12 it was > 100 µM (inactive). The GI50 in the test on K562, in the test with UO-31, with Hs-578T, with HL-60, with M14 and with IGROV-1 was > 100 µM (inactive) throughout. The GI50 with PC-3 was > 100 µM (inactive).

In the case of `CCN(CC)C(=S)Nc1ccc(-c2cc3ccc(O)cc3oc2=O)cc1`, the GI50 with BT-549 was 26.1 µM (inactive); in the test on MDA-MB-231, 39.4 µM (inactive); in the test with SN12C, 27 µM (inactive); with SK-MEL-28, 25.9 µM (inactive); in the test with NCI-H226 it was 25.6 µM (inactive); with NCI-H522 it was 17 µM (inactive). The GI50 with SF-539 was 29.2 µM (inactive); in the test on SF-268, 32.1 µM (inactive); with SF-295 it was 36.5 µM (inactive); in the test with HT-29, 16.8 µM (inactive); with SW-620 it was 34 µM (inactive); in the test on KM12, 28.8 µM (inactive). For the same molecule, the GI50 with K562 was 18.4 µM (inactive); in the test on UO-31, 17.5 µM (inactive); with Hs-578T, 25.4 µM (inactive); in the test with HL-60, 3.76 µM (inactive); in the test with M14, 27.2 µM (inactive); in the test with IGROV-1 it was 30.6 µM (inactive). In addition, the GI50 in the test with PC-3 was 23.4 µM (inactive).

As to `O=C(OC1OC2COC(=O)c3cc(O)c(O)c(O)c3-c3c(cc(O)c(O)c3O)C(=O)OC3C2OC(=O)[C@@]24CC(=O)[C@@](O)(OC25C(=O)O[C@H]2[C@@H](O)CO[C@@]25O)C2(O)Oc5c(O)c(O)cc(c5C24)C(=O)OC13)c1cc(O)c(O)c(O)c1` (stereo partly drawn), the GI50 was > 100 µM (inactive) in the test with BT-549; 0.857 µM (active) with MDA-MB-231; 56 µM (inactive) in the test on SN12C; > 100 µM (inactive) in the test with SK-MEL-28; 90.4 µM (inactive) in the test on NCI-H226; 74.5 µM (inactive) in the test with HOP-62. In addition, the GI50 with NCI-H522 was 19.5 µM (inactive); in the test with SF-268, 58.6 µM (inactive); in the test on SF-295 it was 44 µM (inactive); with HT-29, 23.2 µM (inactive); in the test with SW-620 it was 41.2 µM (inactive); in the test on KM12, 18.8 µM (inactive). The GI50 was 30.1 µM (inactive) in the test on K562; 34.8 µM (inactive) in the test on UO-31; > 100 µM (inactive) with Hs-578T; 21.2 µM (inactive) in the test on HL-60; 49.3 µM (inactive) in the test on M14; 75.9 µM (inactive) with IGROV-1. Further, the GI50 in the test with PC-3 is 42.3 µM (inactive).

Turning to `Nc1nc(Cl)cc(Nc2ccc3c(c2)CCC3)n1`, the GI50 was > 100 µM (inactive) in the test on BT-549; 52 µM (inactive) in the test on MDA-MB-231; 80.2 µM (inactive) in the test with SN12C; > 100 µM (inactive) in the test on SK-MEL-28; > 100 µM (inactive) in the test on NCI-H226; 45.4 µM (inactive) with NCI-H522. In addition, the GI50 in the test with SF-539 is > 100 µM (inactive); in the test with SF-268, > 100 µM (inactive); in the test on SF-295 it was > 100 µM (inactive); in the test with HT-29 it was 26.1 µM (inactive); with SW-620, 85.1 µM (inactive); in the test with KM12, 36.1 µM (inactive). The GI50 with K562 was 32.7 µM (inactive); in the test on UO-31 it was > 100 µM (inactive); with Hs-578T it was > 100 µM (inactive); in the test on HL-60 it was 37.2 µM (inactive); with M14, > 100 µM (inactive); in the test on IGROV-1, 41.5 µM (inactive). The GI50 in the test with PC-3 was 61.2 µM (inactive).
